Experiments:
NTR1 receptor = conditions: calcium release (FLIPR) assay; cited from earlier work
NTR1 = NTR1 (Homo sapiens, UniProt P30989); assay: NTR1 agonist-mediated calcium mobilization assay; type: cell-based; conditions: for NTR1 specificity of the observed calcium release (block by NTR1 antagonist 1a): cells pre-incubated with 1 or 10 mM 1a for 15 min at 37 °C, test compound at its EC50, data not shown
Sequence of NTR1 (P30989 whole entry, species assumed): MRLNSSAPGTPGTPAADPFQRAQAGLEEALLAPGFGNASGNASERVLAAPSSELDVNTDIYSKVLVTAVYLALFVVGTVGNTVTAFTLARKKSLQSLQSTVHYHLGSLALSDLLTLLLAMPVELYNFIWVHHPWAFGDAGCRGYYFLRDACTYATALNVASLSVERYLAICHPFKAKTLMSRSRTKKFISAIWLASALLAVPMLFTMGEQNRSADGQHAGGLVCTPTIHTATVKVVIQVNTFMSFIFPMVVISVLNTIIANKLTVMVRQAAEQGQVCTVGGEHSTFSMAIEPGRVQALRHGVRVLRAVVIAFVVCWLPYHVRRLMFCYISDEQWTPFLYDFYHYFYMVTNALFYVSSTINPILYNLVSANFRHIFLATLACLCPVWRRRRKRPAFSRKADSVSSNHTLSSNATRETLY

Row | Structure (SMILES) | NTR1 receptor partial agonist activity (NTR1 receptor) | NTR1 specificity of the observed calcium release (block by NTR1 antagonist 1a) (NTR1) | further results
1 | CC(C)CC(NC(=O)OCC1c2ccccc2-c2ccccc21)C(=O)O (stereo not shown) [Compound 6] | partial agonist activity |  | 
2 | COc1cccc(OC)c1-c1cc(C(=O)N[C@H](C(=O)O)C2CCCCC2)nn1-c1ccnc2cc(Cl)ccc12 [Compound 1b, reference compound] |  |  | Screen (10 μM), percent stimulation relative to NT (NTR1; 10 μM, in triplicate, CHO-K1 cells stably expressing NTR1, NA = not active): did not stimulate calcium release
3 | CC(C)C[C@H](NC(=O)Cn1ccc2cc(NS(=O)(=O)c3cccc4cccnc34)ccc21)C(=O)O [Compound 7] | partial agonist activity |  | 
4 | COc1cccc(OC)c1-c1cc(C(=O)N[C@H](CC(C)C)C(=O)O)nn1-c1ccnc2cc(Cl)ccc12 [Compound 3b] |  | demonstrated by blocking with the NTR1 antagonist (1a) | 
5 | COc1cccc(OC)c1-c1cc(C(=O)N[C@@H](CC(C)C)C(=O)O)nn1-c1cccc2ccccc12 [Compound 5] |  |  | agonist activity when screened (NTR1): no agonist activity
6 | COc1cccc(OC)c1-c1cc(C(=O)N[C@@H](CC(C)C)C(=O)O)nn1-c1ccnc2cc(Cl)ccc12 [Compound 3a] |  | demonstrated by blocking with the NTR1 antagonist (1a) | Emax (NTR1; ± SEM, relative to neurotensin): 51 %NT

— PMC4418176 (Bioorganic & medicinal chemistry letters, 2009)
